{"source": "patent US5807819A", "about": "“Peptides useful for altering bone resorption” (priority 1995, dated 1998)", "key": {"[1]": {"experiment": "Parathyroid hormone-induced hypercalcemia in mice", "assay_type": "in vivo, Swiss-Webster mice", "conditions": "parathyroidectomized mice, 4 hr i.v. peptide infusion, FIG. 9", "source_text": "Parathyroid hormone (PTH) activates osteoclasts, which are involved in bone resorption. Associated with the increased osteoclast activity is an increase in serum calcium. The PTH-induced hypercalcemia assay measures the level of serum calcium, which is an indication of bone resorption in a subject (Fischer et al., Endocrinology 132:1411-1413 (1993), which is incorporated herein by reference).\nSwiss-Webster mice, which had been parathyroidectomized two weeks prior to beginning the assay, were obtained from Taconic Lab Animals and Services (Germantown N.Y.). Femoral vein catheters (PE-50 fused with PE10 polyethylene tubing; Becton Dickinson; Parsippany, N.J.) were installed in the mice, flushed and locked with heparinized saline (1:10), sutured to adjacent muscle and internalized within the inguinal space of the incision before closing the incision with wound clips. […]\nThe experiment was initiated by feeding the mice a calcium-deficient diet overnight, then injecting the mice the following morning with a bolus of 0.2 mg PTH/kg (hPTH 1-34; Bachem; Torrance Calif.), intravenously. […] Various doses of a peptide or vehicle were infused into an animal for 4 hr, then ionized serum calcium again was measured. […] Serum calcium measurements were expressed as the difference between the value 30 min before the PTH pulse and 4 hr after peptide infusion was started. […]"}, "[2]": {"system": "αV β3 integrin receptor", "experiment": "Series of in vitro assays of Example II for potency and selectivity (FIG. 2)", "conditions": "for receptor selectivity classification / potency classification: summary of assays; for activity (FIG. 2): minimal-element peptides", "source_text": "Such peptides can include, for example, peptides within the pharmacophore groups exemplified herein or peptides within other pharmacophore groups. […] The selectivity of a peptide for an integrin receptor involved in osteoclast binding to bone can be determined, for example, using the integrin receptor assays and cell attachment and detachment assays described herein.\nComparison of the IC50 values generated using the JY cell assay and the αV β3 ELISA, which measure binding of the αV β3 receptor involved in osteoclast binding to bone, with the αV β5 and α5 β1 receptor-specific ELISAs, which represent receptors that likely are not involved in osteoclast attachment, provides insight into the receptor selectivity of the peptides."}, "[3]": {"system": "platelet αIIb β3 integrin receptor", "experiment": "Platelet aggregation assay", "assay_type": "cell-based", "conditions": "ADP-induced, platelet-rich plasma from heparinized blood; read-out: IC50 inhibiting platelet aggregation", "description": "This example provides a method for performing a platelet aggregation assay, which is a measure of peptide binding to the platelet αIIb β3 integrin receptor.\nPlatelet-rich plasma (PRP) was prepared fresh from heparinized whole blood. 0.6 ml PRP was placed in a 1.5 ml microcentrifuge tube and centrifuged for 4 min at 14,000×g. Following centrifugation, 0.5 ml supernatant (platelet poor plasma; PPP) was transferred to a 1 ml silicon coated aggregometer tube (Chrono-Log Corp.; Havertown Pa.) and placed in the PPP slot of a Chrono-Log Model 400VS aggregometer (see Tschopp et al., Thromb. Haem. 72:119-124 (1994), which is incorporated herein by reference).\nPlatelet concentration of the PRP sample was determined using a cell counter and the sample was diluted with homologous PPP to obtain 300,000 platelets/μl. 0.5 ml of the diluted PRP was placed in an aggregometer tube with a stir bar and incubated for 5 min at 37° C. without stirring. The tube was transferred to the PRP slot in the aggregometer and the sample was stirred at 1200 rpm for 5-10 min at 37° C. […]\nPlatelet aggregation was initiated by adding adenosine diphosphate (ADP) to a concentration of 10 μM. Platelet aggregation was measured in 2 mm units from baseline (before ADP addition) to response at two min from the time of ADP addition or maximal response (if before 2 min), whichever is larger. […]"}, "[4]": {"system": "chick osteoclasts", "experiment": "Chick cell detachment assay (osteoclasts vs total cells)", "assay_type": "cell-based", "conditions": "FIG. 5, serum-coated plates", "experimental": "Peptides were evaluated for their ability to detach osteoclasts from a matrix consisting of serum-coated microtiter plates.\nBriefly, chick long bones (femur and tibia) were dissected free of soft tissue and minced in prewarmed minimum essential medium (MEM, pH 7.2; Irvine Scientific; Irvine, Calif.) with Earl's salts, supplemented with 10% heat-inactivated fetal calf serum (FCS) and 200 mM glutamine and containing 100 μg/ml streptomycin and 100 IU/ml penicillin. Cells were removed from bone fragments by vigorous shaking in a capped centrifuge tube. Large particulate material was allowed to settle prior to removal of the cell suspension. After repeated agitation of the cells with a large transfer pipette, 100 μl aliquots of cells were added in triplicate to Corning 96 well microtiter plates that had been preincubated for 1 hr with 100 μl of MEM/FCS media.\nThe cells were incubated for 90 min at 37° C. in an atmosphere containing 10% CO2. Following incubation, the cell layers were carefully washed 2× with 200 μl sterile PBS, then 100 μl of fresh MEM/FCS was added. Peptides were diluted in the same medium and added to each well. The cells were incubated overnight as described above. […] 5 min using 0.1% crystal violet and multinucleated osteoclasts were counted by light microscopy. […]"}, "[5]": {"system": "rat osteoclasts", "experiment": "Rat osteoclast attachment assay compared with MG63/NRK cell attachment", "assay_type": "cell-based", "conditions": "FIGS. 7 and 8, FCS substrate", "description": "To determine the effect of a peptide on the attachment of rat osteoclasts in vitro, 100 μl aliquots of the rat pup bone cell suspension described in Example II.B.2., above, were added in triplicate to 96 well \"MAXISORP\" plates coated with specific substrates or with FCS. Substrate coated plates were used to determine the ability of peptides to inhibit attachment or induce detachment of an osteoclast from a ligand such as vitronectin, fibronectin, osteopontin or collagen I (Collaborative Research), which are ligands present in bone. Substrates were added to 96 well plates (50 μl of a 5-10 μg/ml solution in sodium carbonate, pH 9.5) and incubated for 2 hr at 37° C. For FCS control wells, 100 μl 10% FCS was added. Wells were aspirated, then washed 2× with PBS and blocked with 1% bovine serum albumin in PBS for 2 hr at 37° C. Wells were aspirated and washed again 2× with PBS. Cells were seeded in duplicate at 4×10^4 cells/well. […]\nFollowing incubation, the medium and nonadherent cells were removed by aspiration from each well. […] Adherent osteoclasts were counted by light microscopy. […]\nMG63 and NRK cell lines were purchased from ATTC (Rockville Md.). […] Following staining, the stain was extracted with 20% acetic acid and the OD562 of the extracted stain was determined. […]\nSelectivity of a peptide can be determined by comparing the results of FIGS. 7 and 8 (see, also FIG. 2)."}, "[6]": {"system": "αV β3 integrin receptor", "conditions": "rabbit, in vivo; cited from earlier work"}}, "note": "Where a SMILES comes first, the peptide text is derived from it. Bridges are numbered along the chain shown (N, C = ends). [ ]: non-standard residue; d: D form. Tic = O=C(O)[C@@H]1Cc2ccccc2CN1; Pen = CC(C)(S)[C@H](N)C(=O)O; Mpa = O=C(O)CCS"}
{"compound": "CC(C)[C@@H]1NC(=O)[C@H](CC(=O)O)NC(=O)[C@H](CC(=O)O)NC(=O)CNC(=O)[C@H](CCCNC(=N)N)NC(=O)CCSSC[C@@H](C(N)=O)NC1=O", "note": "[compound 191] ([Mpa]RGDDVC-NH2; disulfide 1-7)", "values": [{"measurement": "PTH-induced rise in serum ionized calcium", "setting": "[1]", "result": "decreased the PTH-induced rise in serum ionized calcium in a dose responsive manner"}]}
{"compound": "CC(=O)N[C@H]1CSSC(C)(C)[C@@H](C(N)=O)NC(=O)[C@@H]2CCCN2C(=O)[C@H](CC(N)=O)NC(=O)[C@H](CC(=O)O)NC(=O)CNC(=O)[C@H](CCCNC(=N)N)NC1=O", "note": "[compound 228] (Ac-CRGDNP[Pen]-NH2; disulfide 1-7)", "values": [{"measurement": "receptor selectivity classification", "setting": "[2]", "result": "particularly receptor selective"}]}
{"compound": "CC(=O)N[C@H]1CSSC[C@@H](C(N)=O)NC(=O)[C@@H]2Cc3ccccc3CN2C(=O)[C@H](CO)NC(=O)[C@H](CC(=O)O)NC(=O)CNC(=O)[C@H](CCCNC(=N)N)NC1=O", "note": "[compound 812, Ac-CRGDS(Tic)C-NH2] (Ac-CRGDS[Tic]C-NH2; disulfide 1-7)", "values": [{"measurement": "activity (FIG. 2)", "setting": "[2]", "result": "demonstrate activity"}, {"measurement": "potency classification", "setting": "[2]", "result": "particularly potent"}]}
{"compound": "COc1ccc(C[C@@H]2NC(=O)[C@H](CC(=O)O)NC(=O)CNC(=O)[C@H](CCCNC(=N)N)NC(=O)CC[C@@H](C(N)=O)NC(=O)[C@H](CCCNC(=N)N)NC2=O)cc1", "note": "[compound 940, RGD(YOMe)RE-NH2]", "values": [{"measurement": "IC50", "setting": "[3]", "result": 820, "unit": "nM"}]}
{"compound": "CC(=O)N[C@@H]1C(=O)N[C@@H](Cc2ccccc2)C(=O)N[C@@H](C)C(=O)N[C@@H](CCCNC(=N)N)C(=O)NCC(=O)N[C@@H](CC(=O)O)C(=O)N[C@@H](CC(N)=O)C(=O)N2CCC[C@H]2C(=O)N[C@H](C(N)=O)CSSC1(C)C", "note": "[peptide 214] (Ac-[Pen]FARGDNPC-NH2; disulfide 1-9)", "values": [{"measurement": "potency classification", "setting": "[2]", "result": "particularly potent"}]}
{"compound": "CC(C)[C@@H]1NC(=O)[C@H](CC(=O)O)NC(=O)[C@H](CC(=O)O)NC(=O)CNC(=O)[C@H](CCCNC(=N)N)NC(=O)CC[C@@H](C(N)=O)NC1=O", "note": "[peptide 386, RGDDVE-NH2] (RGDDVE-NH2; lactam N-6)", "values": [{"measurement": "selective detachment of osteoclasts compared to other cell types", "setting": "[4]", "result": "caused selective detachment of osteoclasts as compared to other cell types"}, {"measurement": "activity (FIG. 2)", "setting": "[2]", "result": "demonstrate activity"}, {"measurement": "receptor selectivity classification", "setting": "[2]", "result": "particularly receptor selective"}, {"measurement": "selectivity: osteoclast attachment versus MG63 or NRK attachment", "setting": "[5]", "result": "highly active on osteoclast attachment but were less active on MG63 or NRK attachment"}, {"measurement": "PTH-induced rise in serum ionized calcium", "setting": "[1]", "result": "relatively low level of serum calcium"}]}
{"compound": "G(Pen)GRGDSPCA", "values": [{"measurement": "neointimal hyperplasia", "setting": "[6]", "result": "can inhibit neointimal hyperplasia"}]}
